Among the data in patent US6545008B1, “Pyrimidine derivatives and processes for the preparation thereof” (Yuhan Corporation, priority 1998, dated 2003) are IC50 values, retold here.

Counter-ions that a name gives are not always drawn.

The experiment concerns the target T1, proton pump (H+/K+-ATPase) (UniProt P19156).
T1 construct: The gastric vesicle as an enzyme source was prepared by the same method as in the Experiment 1—1 of WO 94/14795
Nature of the experiment: Inhibition of proton pump (H+/K+-ATPase) activity, gastric vesicle enzyme source. Conditions: pH 6.4, 37° C., 30 min preincubation, linear regression over 5 concentrations, read-out: IC50, inhibitory effects on proton pump (H+/K+-ATPase) activity. In kind it is biochemical. The protocol:
Test Example 1: Inhibition of proton pump (H^+/K^+-ATPase) activity
The gastric vesicle as an enzyme source was prepared by the same method as in the Experiment 1—1 of WO 94/14795. Further, the inhibitory effect of proton pump activity was measured by the same method as in Experiment 1-2 of WO 94/14795.
Namely, the proton pump activity stimulated by Mg^++ was used as a negative control group, and the activity stimulated by Mg^++ and K^+ was used as a positive control group. Omeprazole was used as the control compound.
Test tubes were divided into 4 groups: Group 1 as negative control group (n=3), Group 2 as positive control group (n=3), Group 3 (n=5×2) to be administered with the compound of the present invention and Group 4 (n=5×2) to be administered with the control compound.
The inhibitory effects of Group 3 and 4 on proton pump activity were measured by employing the compounds prepared in Examples and omeprazole, respectively, each of which was dissolved in dimethyl sulfoxide (DMSO) at 5 different concentrations.
To each of Groups 1, 2, 3, and 4 was added 0.1 ml of magnesium chloride (4 mM) dissolved in 40 mM Tris-HCl buffer (pH 6.4) and 100 μg of enzyme source. The 50 μl of potassium chloride (60 mM) and 50 μl of ammonium chloride (6 mM) dissolved in 40 mM Tris-HCl buffer (pH 6.4) were added to all groups except for Group 1.
10 μl of dimethyl sulfoxide was added to each of Group 1 and 2; and to Group 3 was added […] of dimethyl sulfoxide solution prepared by dissolving compound of Example at 5 different concentrations (n=5×2). To Group 4, was added 10 μl of the solution prepared by dissolving omeprazole in dimethyl sulfoxide at 5 different concentrations (40, 20, 10, 5, 2.5 μM) (n=5×2). […] Tris-HCl buffer (pH 6.4) was added thereto so as to make the total volume 400 μl.
Thereafter the test tubes of each Group were placed at 37° C. for 30 minutes for the preincubation. ATP solution (6.6 mM) was added until the total volume became 500 μl. After the reaction was carried out at 37° C. for 30 minutes, 25% cold trichloroactic acid was added to terminate the enzyme reaction. The released inorganic phosphorous was measured by an automatic analyzer (Express 550, Corning).
The difference between Group 1 and Group 2 represents the proton pump activity activated by K^+ only. The IC50s of Group 3 and 4 were calculated using the Linear Regression method. The concentrations of the test compounds inhibiting 50% of the proton pump activity are represented as IC50 in Table 1.

As to `COc1ccc2[nH]c([S+]([O-])Cc3ncc(C)c(OC)c3C)nc2c1` (centres unmarked) [Omeprazole, reference compound], the IC50 worked out at 11500 nM. For `Cc1ccccc1Nc1nc(C)c(C)c(N2CCc3ccc(F)cc3C2C)n1` (centres unmarked) [Example 5, 5,6-dimethyl-2-(2-methylphenylamino)-4-(1-methyl-7-fluoro-1,2,3,4-tetrahydroisoquinolin-2-yl)pyrimidine hydrochloride] the value was 600 nM; for `Cc1nc(Nc2ccc(F)cc2F)nc(N2CCc3ccccc3C2C)c1C` (centres unmarked) [Example 2, 5,6-dimethyl-2-(2,4-difluorophenylamino)-4-(1-methyl-1,2,3,4-tetrahydroisoquinolin-2-yl)pyrimidine hydrochloride], 3800 nM. For `Cc1nc(Nc2ccccc2F)nc(N2CCc3ccc(F)cc3C2C)c1C` (centres unmarked) [Example 11, 5,6-dimethyl-2-(2-fluorophenylamino)-4-(1-methyl-7-fluoro-1,2,3,4-tetrahydroisoquinolin-2-yl)pyrimidine hydrochloride] the value was 1900 nM; for `Cc1nc(Nc2ccc(F)cc2)nc(N2CCc3ccccc3C2C)c1CF` (centres unmarked) [Example 25, 5-fluoromethyl-6-methyl-2-(4-fluorophenylamino)-4-(1-methyl-1,2,3,4-tetrahydroisoquinolin-2-yl)-pyrimidine hydrochloride], 4100 nM. For `Cc1nc(Nc2ccc(Cl)cc2)nc(N2CCc3cc(F)ccc3C2C)c1C` (centres unmarked) [Example 20, 5,6-dimethyl-2-(4-chlorophenylamino)4-(1-methyl-6-fluoro-1,2,3,4-tetrahydroisoquinolin-2-yl)pyrimidine hydrochloride], the IC50 was determined as 1200 nM. For `Cc1nc(Nc2ccc(F)cc2)nc(N2CCc3cc(F)ccc3C2C)c1C` (centres unmarked) [Example 14, 5,6-dimethyl-2-(4-fluorophenylamino)-4-(1-methyl-6-fluoro-1,2,3,4-tetrahydroisoquinolin-2-yl)pyrimidine hydrochloride] the value was 700 nM; for `Cc1cc(F)ccc1Nc1nc(C)c(C)c(N2CCc3ccc(F)cc3C2C)n1` (centres unmarked) [Example 6, 5,6-dimethyl-2-(2-methyl-4-fluorophenylamino)-4-(1-methyl-7-fluoro-1,2,3,4-tetrahydroisoquinolin-2-yl)pyrimidine hydrochloride], 300 nM.

For `Cc1nc(Nc2cccc(F)c2)nc(N2CCc3ccc(F)cc3C2C)c1C` (centres unmarked) [Example 12, 5,6-dimethyl-2-(3-fluorophenylamino)4-(1-methyl-7-fluoro-1,2,3,4-tetrahydroisoquinolin-2-yl)pyrimidine hydrochloride], the IC50 stood at 3200 nM.

As for `Cc1nc(Nc2ccc(F)cc2F)nc(N2CCc3c(Cl)cccc3C2C)c1C` (centres unmarked) [Example 39, 5,6-dimethyl-2-(2,4-difluorophenylamino)-4-(1-methyl-5-chloro-1,2,3,4-tetrahydroisoquinolin-2-yl)pyrimidine hydrochloride], the IC50 came to 900 nM. Consider `Cc1nc(Nc2ccc(F)cc2)nc(N2CCc3ccccc3C2CF)c1C` (centres unmarked) [Example 26, 5,6-dimethyl-2-(4-fluorophenylamino)-4-(1-fluoromethyl-1,2,3,4-tetrahydroisoquinolin-2-yl)pyrimidine hydrochloride], for which the IC50 was 3700 nM. For `Cc1c(CF)nc(Nc2ccc(F)cc2)nc1N1CCc2ccccc2C1C` (centres unmarked) [Example 24, 5-methyl-6-fluoromethyl-2-(4-fluorophenylamino)-4-(1-methyl-1,2,3,4-tetrahydroisoquinolin-2-yl)-pyrimidine hydrochloride] the value was 900 nM; for `Cc1nc(Nc2ccc(F)cc2F)nc(N2CCc3cc(F)ccc3C2C)c1C` (centres unmarked) [Example 19, 5,6-dimethyl-2-(2,4-difluorophenylamino)-4-(1-methyl-6-fluoro-1,2,3,4,-tetrahydroisoquinolin-2-yl)pyrimidine hydrochloride], 1000 nM; for `Cc1nc(Nc2ccc(Cl)cc2)nc(N2CCc3ccc(F)cc3C2C)c1C` (centres unmarked) [Example 9, 5,6-dimethyl-2-(4-chlorophenylamino)-4-(1-methyl-7-fluoro-1,2,3,4-tetrahydroisoquinolin-2-yl)pyrimidine hydrochloride], 900 nM.

Take `Cc1nc(Nc2ccc(F)c(F)c2)nc(N2CCc3ccccc3C2C)c1C` (centres unmarked) [Example 1, 5,6-dimethyl-2-(3,4-difluorophenylamino)-4-(1-methyl-1,2,3,4-tetrahydroisoquinolin-2-yl)pyrimidine hydrochloride]: the IC50 was 1600 nM.

On to `Cc1nc(Nc2ccc(F)c(F)c2)nc(N2CCc3ccc(F)cc3C2C)c1C` (centres unmarked) [Example 7, 5,6-dimethyl-2-(3,4-difluorophenylamino)-4-(1-methyl-7-fluoro-1,2,3,4-tetrahydroisoquinolin-2-yl)pyrimidine hydrochloride], for which the IC50 is 2600 nM. As to `Cc1nc(Nc2ccc(F)cc2F)nc(N2CCc3ccc(F)cc3C2C)c1C` (centres unmarked) [Example 8, 5,6-dimethyl-2-(2,4-difluorophenylamino)-4-(1-methyl-7-fluoro-1,2,3,4-tetrahydroisoquinolin-2-yl)pyrimidine hydrochloride], the IC50 was determined as 700 nM.

As for `Cc1cc(F)ccc1Nc1nc(C)c(C)c(N2CCc3cc(F)ccc3C2C)n1` (centres unmarked) [Example 17, 5,6-dimethyl-2-(2-methyl-4-fluorophenylamino)-4-(1-methyl-6-fluoro-1,2,3,4-tetrahydroisoquinolin-2-yl)pyrimidine hydrochloride], the IC50 was determined as 200 nM.

In the case of `Cc1nc(Nc2ccccc2)nc(N2CCc3ccc(F)cc3C2C)c1C` (centres unmarked) [Example 4, 5,6-dimethyl-2-phenylamino-4-(1-methyl-7-fluoro-1,2,3,4-tetrahydroisoquinolin-2-yl)pyrimidine hydrochloride], the IC50 came out at 1000 nM. As to `Cc1nc(Nc2ccc(F)cc2)nc(N2CCc3c(Cl)cccc3C2C)c1C` (centres unmarked) [Example 35, 5,6-dimethyl-2-(4-fluorophenylamino)-4-(1-methyl-5-chloro-1,2,3,4-tetrahydroisoquinolin-2-yl)pyrimidine hydrochloride], the IC50 is 900 nM.
